Test results: patent US10888569B1, “Methods and compositions for treating cancer” (THE UNIVERSITY OF CHICAGO, priority 2017, dated 2021)

Legend:
BACH1 [1] = target: T1, BACH1 (Mus musculus, UniProt P97302, C438A/C464A/C495A/C649A); experiment: Immunoblotting of BACH1 in cell lysates after hemin; format: cell-based, human; conditions: hemin 20 μM
T1 construct: Protein blots of BACH1 levels in BM1 and MB436 cells treated with Hemin for 4 or 24 hours; endogenous in cells; host or cells: BM1 (MDA-MB-231 derivative), MDA-MB-436, BT549
T1 sequence (P97302 1-739 C438A/C464A/C495A/C649A): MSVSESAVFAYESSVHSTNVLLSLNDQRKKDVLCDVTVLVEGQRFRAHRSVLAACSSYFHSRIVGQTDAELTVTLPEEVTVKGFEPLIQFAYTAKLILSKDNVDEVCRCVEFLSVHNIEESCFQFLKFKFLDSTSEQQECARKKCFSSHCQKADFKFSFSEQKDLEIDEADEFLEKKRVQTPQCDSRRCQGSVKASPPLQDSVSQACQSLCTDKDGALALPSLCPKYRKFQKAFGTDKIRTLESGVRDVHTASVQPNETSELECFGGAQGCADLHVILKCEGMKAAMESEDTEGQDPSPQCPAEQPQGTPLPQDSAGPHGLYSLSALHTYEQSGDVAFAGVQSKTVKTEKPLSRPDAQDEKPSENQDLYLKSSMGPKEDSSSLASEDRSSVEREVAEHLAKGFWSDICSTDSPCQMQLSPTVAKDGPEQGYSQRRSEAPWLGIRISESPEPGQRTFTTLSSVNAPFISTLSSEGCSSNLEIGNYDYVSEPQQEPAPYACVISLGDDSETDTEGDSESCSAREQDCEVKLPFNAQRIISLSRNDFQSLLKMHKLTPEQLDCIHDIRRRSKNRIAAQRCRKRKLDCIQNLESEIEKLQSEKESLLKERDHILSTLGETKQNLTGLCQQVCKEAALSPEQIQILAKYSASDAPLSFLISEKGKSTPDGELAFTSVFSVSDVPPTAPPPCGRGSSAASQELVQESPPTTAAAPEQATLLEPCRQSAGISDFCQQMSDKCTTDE
Experimental: (§1) Whole cell lysates were prepared using RIPA buffer (Sigma) with protease inhibitor cocktails (1:100 ThermoFisher) and phosphatase inhibitors (SimpleStop1, Gold Biotechnology) at 4° C. and quantified using Bradford assays for western blotting using antibodies against BACH1 (sc-271211; Santa Cruz), and alpha-TUBULIN (sc-28199; Santa Cruz). Blots were imaged and processed using a Licor Odyssey Fc, dual-mode imaging system (Licor).

MB436 xenograft tumors = conditions: hemin 50 mg/kg/day i.p. 10 consecutive days prior to metformin 200 mg/kg
Experimental: Two million human breast cancer cells (MDA-MB-436-shCont, MDA-MB-436-shBACH1, BM1-shBACH1, or BM1-shCont) in 100 μl PBS were injected into the mammary fat pads of 5 to 6 weeks old athymic nude female mice (Charles River Laboratories). When tumors were about 20-30 or 50 mm^3 in volume, hemin (50 mg/kg/day) or vehicle (20 mM NaOH in phosphate buffered saline) was injected intraperitoneally for 10 days prior to metformin treatment for 8 weeks. Metformin (200 mg/kg for MDA-MB-436 cells or 300 mg/kg for BM1-cells) was provided in drinking water ad libidum. Tumor growth was monitored weekly by caliper measurement in two dimensions to generate ellipsoid volumes using an equation of vol.=0.4×(L×W^2).

BACH1 [2] = target: T2, BACH1 (Homo sapiens, UniProt O14867); experiment: Immunoblotting of BACH1 in cell lysates after hemin; format: cell-based; parameters: Protein blots of BACH1 levels in BM1 and MB436 cells treated with Hemin for 4 or 24 hours; endogenous in cells; host or cells: BM1 (MDA-MB-231 derivative), MDA-MB-436, BT549
T2 sequence (O14867 1-736): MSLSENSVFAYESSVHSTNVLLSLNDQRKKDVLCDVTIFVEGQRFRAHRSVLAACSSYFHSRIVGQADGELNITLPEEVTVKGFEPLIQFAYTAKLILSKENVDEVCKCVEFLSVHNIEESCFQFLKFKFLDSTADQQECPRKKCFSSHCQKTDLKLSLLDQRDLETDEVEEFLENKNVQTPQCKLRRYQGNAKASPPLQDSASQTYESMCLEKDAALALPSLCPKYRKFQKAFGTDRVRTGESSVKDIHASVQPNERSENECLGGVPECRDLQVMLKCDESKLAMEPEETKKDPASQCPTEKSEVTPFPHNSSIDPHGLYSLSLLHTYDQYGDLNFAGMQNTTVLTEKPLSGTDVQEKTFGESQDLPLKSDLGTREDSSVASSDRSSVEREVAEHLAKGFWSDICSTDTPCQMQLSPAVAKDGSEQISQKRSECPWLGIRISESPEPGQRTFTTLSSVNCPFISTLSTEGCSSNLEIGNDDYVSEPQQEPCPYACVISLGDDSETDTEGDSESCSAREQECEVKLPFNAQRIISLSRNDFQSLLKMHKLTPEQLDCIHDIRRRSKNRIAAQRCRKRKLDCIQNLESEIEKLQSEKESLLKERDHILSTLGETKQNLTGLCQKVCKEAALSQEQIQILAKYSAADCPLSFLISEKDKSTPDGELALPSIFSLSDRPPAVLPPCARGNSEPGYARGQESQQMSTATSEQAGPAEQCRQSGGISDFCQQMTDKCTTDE
Experimental: as §1

BACH1 [3] = target: T2, BACH1; experiment: Immunoblotting of PDX tumor lysates: BACH1; format: in vivo, mouse; parameters: BACH1 protein blots using tumor lysates from representative mice of different TNBC models; from tissue; host or cells: TNBC patient-derived xenograft tumour in mammary fat pad of SCID-Beige mice; conditions: following hemin treatment
Experimental: as §1
For a patient-derived xenografts (PDX) model, frozen PDX tumors in 0.5 ml of sterile HBSS were prepared in a volume of 10-20 mm^3. In brief, tumor fragments were implanted into the mammary fat pads of 5 weeks old SCID-Beige mice following standard procedures. […] Tumor volume was measured by caliper weekly. Tumor weight was measured at the end of drug treatment. Tumor size was shown as mean+/_s.e.m. with significance (p-value) by paired Student's t-test. All the animals were also monitored regularly for body weights.

`C=CC1=C(C)c2cc3[n-]c(cc4[n-]c(cc5nc(cc1n2)C(C)=C5C=C)c(C)c4CCC(=O)O)c(CCC(=O)O)c3C.[Cl-].[Fe+3]` [hemin, Chloro[3,7,12,17-tetramethyl-8,13-divinylporphyrin-2,18-dipropanoato(2-)]iron(III)] was tested, and the “degradation of heme-resistant BACH1 mutant (Mut-Bach1)” value (BACH1 [1]) was “did not degrade Mut-Bach1”, the “breast tumor growth / volume” value (MB436 xenograft tumors) was “neither hemin nor metformin alone significantly altered tumor growth” and the BACH1 levels (BACH1 [2]; 20 μM hemin, cultured TNBC cells) was “effective at reducing BACH1 levels”. For the same compound, the BACH1 levels (BACH1 [2]; hemin 10-80 μM, TNBC cells) was “effective at reducing BACH1 levels” and the “BACH1 protein expression in PDX tumors” value (BACH1 [3]) was “depleted”.
